For one compound, viability results are on record in patent US8470765B2, “Polypeptides and antibacterial or antiseptic use of same” (AnGes MG, Inc., priority 2009, dated 2013).

Assay [1] deals with Staphylococcus aureus (S. aureus ATCC29213). Kind of assay: ATP assay (BacTiter-Glo) viability, Table 2. It is filed as cell-based. To be noted: ATCC29213, 3 h, read-out: Viability (%) S. aureus. On the procedure: (§1) The antibacterial activity of the polypeptides was measured using the ATP assay method.
(§2) Using BacTiter-Glo Microbial Cell Viability Assay kit available from PROMEGA, the antibacterial activity of the peptides was evaluated from the viability of bacteria. That is, ATP amount in viable bacteria in cases where the concentration of the peptides was 10 μg/ml, was measured using a microtiter plate or test tubes.
(§3) With respect to the strains, Staphylococcus aureus (S. aureus ATCC29213) as Gram-positive bacteria, or, alternatively, Pseudomonas aeruginosa (P. aeruginosa ATCC27853) as Gram-negative bacteria, was used. The bacteria were cultured in media for 3 to 4 hours, and thereafter absorbances at A600 were measured. Bacterial suspensions were diluted with Mueller-Hinton broth (MHB) according to McFarland #0.5. Each strain was added so as to attain about 0.5-1×10^5 CFU/mL (final concentration) in terms of Escherichia coli. Each peptide was prepared and added to a microplate or test tubes so as to attain a final concentration of […], and the bacterial suspension was added thereto. […] The plate was incubated at 37° C. for 3 hours, and the amount of ATP in the culture media was measured. Relative values were calculated by comparison with the negative control, and these values were regarded as the viability.

Assay [2] relates to Pseudomonas aeruginosa (P. aeruginosa ATCC27853). The assay is described as follows: ATP assay (BacTiter-Glo) viability, Table 2. Format: cell-based. Particulars: ATCC27853, 3 h, read-out: Viability (%) P. aeruginosa. How it is done:
as §1, §2, §3

As for `NC[C@H]1O[C@H](O[C@H]2[C@H](O)[C@@H](O[C@H]3O[C@H](CO)[C@@H](O)[C@H](N)[C@H]3O)[C@H](N)C[C@@H]2N)[C@H](N)C[C@@H]1O` [tobramycin, reference compound], the figures for the viability at 1 µg/mL in assay [1] and in assay [2] were 3.6% and 1.8%, respectively.

For orientation: viability means a per cent measure of how many cells are alive, often set against a control.
